Laboratory results: BigSolDB 2.1

O=C(O)CNC(=O)c1ccccc1
solubility (mole fraction)
Conditions	in 1,4-dioxane	in DMF	in THF	in chloroform	in ethanol	in methanol	in n-butanol	in n-propanol
298.15 K	0.00729	0.206	0.0142	0.00021	0.0148	0.0179	0.00776	0.00884
303.15 K	0.0084	0.213	0.0167	0.00035	0.0162	0.0197	0.00908	0.0108
308.15 K	0.0109	0.219	0.018	0.00052	0.0194	0.023	0.0106	0.0121
313.15 K	0.014	0.226	0.0209	0.0007	0.024	0.0275	0.0128	0.0151
318.15 K	0.0164	0.232	0.0228	0.00088	0.029	0.0323	0.0151	0.0174
323.15 K	0.0182	0.239	0.026	0.00102	0.0342	0.0378	0.0178	0.0201
328.15 K	0.0209	0.246	0.0291	0.0011	0.0396	0.0448	0.0205	0.0232
